Legend:
[1] = test system: pancreatic acinar carcinoma AR42 J-B13 cells; settings: known from prior report; cited from earlier work
[2] = test system: pancreatic acinar carcinoma AR42J-B13 cells; test: Morphological change and trypan blue exclusion test of AR42J-B13 cells; assay type: cell-based, rat
Protocol: (§1) DMEM was sterilized by filtration after its pH was adjusted to 7.4 in the presence of 20 mM HEPES-NaOH. AR42J-B13 cells (endowed by Dr. Itaru Kojima, Institute for Cellular and Molecular Regulation, Gunma University) a highly sensitive subclone of AR42J, were cultured at 37° C. in a 5% CO2 incubator with 20 ml of culture medium DMEM supplemented with 100 mg/l kanamycin, 0.6 g/l glutamine, 100 unit/ml penicillin G, 5 mM NaHCO3, and 10% FBS. To prevent transformation due to a high density of the cells and to retain differentiation ability of the cells, the cells were transferred every 2 to 3 days to maintain 2.5% to 5% of confluency. The cell transfer was performed as follows: After the medium was removed, the cells were washed twice in PBS^− (Ca^2+, Mg^2+-free PBS; 8 g/l, NaCl, 0.2 g/l KCl, 0.916 g/Na2HPO4, 0.2 g/l KH2PO4). Subsequently, the cells were detached using 2 ml of trypsin-EDTA solution, and then trypsin was inactivated by addition of 8 ml of the medium. […]
Cells that had been prepared at a density of 4×10^5 cells/ml were plated at 500 μl per well on 24-well plates, followed by incubation at 37° C. in a 5% CO2 incubator. […] Further, the photograph was enlarged 2.5 times and a morphological change was defined as having occurred when the full length of a cell in the diameter became 1.5 times; thus, the rates of morphological changes were determined.

[3] = test system: pancreatic acinar carcinoma AR42J-B13 cells; test: ELISA quantification of insulin secretion of differentiated AR42J-B13 cells; assay type: cell-based, rat; settings: secretion below the detection level
[4] = test system: streptozotocin-administered rats; test: Blood glucose levels of streptozotocin-administered rats; assay type: in vivo, Wistar rats; settings: 5 μg/g BW subcutaneously for seven consecutive days from day 1 after streptozotocin; versus control; P<0.05 / P<0.01; FIG. 4
Protocol: Ten 1-day old Wistar rats (purchased from Japan SLC, Shizuoka, Japan) were intraperitoneally injected with streptozotocin (purchased from Wako Pure Chemical Industries, Ltd., dissolved in […] citrate buffer (pH 4.5)) at 85 μg/g BW per rat. Streptozotocin decreases insulin production by destroying pancreatic β cells, thereby inducing diabetes. The day of streptozotocin injection was defined as day 0, Starting from the next day (day 1), five rats were injected subcutaneously with a solution (ethanol) of conophylline at 5 μg/g BW for seven consecutive days and their random blood glucose levels were measured daily. Five rats in the control group received the same volume of solvent (Control).

[5] = test system: neonatal porcine pancreatic cells; test: Immunostaining of insulin-producing cells in cultured neonatal porcine pancreatic cells (Experiment example I); assay type: cell-based, pig; settings: three weeks culture; nicotinamide 10 mM, HGF 10 ng/ml, conophylline 0.1 μg/ml; FIG. 2
Protocol: Neonatal pigs within 72 hours of birth were obtained from the (Takayama) pig farm. The whole pancreas (ventral and dorsal pancreas) was removed under general anesthesia immediately after animals were brought to the operating room. After elimination of connective tissue covering the removed pancreas and blood adhering to it, the pancreas was transferred to a 10 ml beaker and dissected into small pieces with ophthalmic scissors. The dissected pieces were transferred to a 100 ml conical flask, to which 50 to 60 ml of phosphate buffered saline (PBS) was added. After a 3 min rotation at 110 rpm on a low speed stirrer, the mixture was allowed to stand still and the supernatant was discarded. Then, 40 mL of phosphate buffered saline containing Liberase PI (Roche) at a concentration of 2.5 mg/ml was added. After an 8 min rotation at 110 rpm on a low speed stirrer, the mixture was allowed to stand still and the supernatant containing the cells was collected. The operation was repeated 5 times. The supernatant collected was centrifuged at 1200 rpm for 5 min. to collect cells. The cells collected in the centrifugal sedimentum was suspended in 25 to 50 ml of PBS, 25 ml of cell suspension was overlaid gently on 10 ml of Histopaque 1077 (Sigma), followed by centrifugation at 1800 rpm for 10 min. […]

[6] = test system: pancreatic acinar carcinoma AR42J-B13 cells; test: Insulin immunofluorescence of AR42J-B13 cells; assay type: cell-based, rat; settings: after 72 hours; conophylline 0.1 μg/ml, HGF 100 pM, activin A 2 nM
Protocol: as §1, with “medium. Subsequently, the cell were sedimented by centrifugation at 1000 rpm for 5 min, trypsin was removed, 10 ml of fresh medium was added, and transferred to be 2.5% to 5% of confluency. Cells were cryopreserved under the condition of 7.5% dimethyl sulfoxide (DMSO).” for “medium.”

porcine pancreatic cells = test: Induction of insulin production in porcine pancreatic cells (statement in the description); assay type: cell-based, pig; settings: no conditions given

CC[C@@]12CC(C(=O)OC)=C3Nc4cc5c(cc4[C@@]34CCN(C[C@H]3O[C@H]31)[C@@H]24)[C@@H]1[C@H](O5)[C@@H](O)[C@@]2(CC)CC(C(=O)OC)=C3Nc4c(cc(O)c(OC)c4OC)[C@@]34CCN1[C@@H]24 [conophylline]
insulin production of AR42J cells [1]: induces insulin production | insulin release into culture medium [1]: did not release insulin into culture medium | process outgrowth (morphological change) ([2]; conophylline 0.1 to 0.3 μg/ml, alone or with HGF): concentration-dependently induced | insulin secretion out of cells [3]: incapable of inducing insulin secretion out of cells | blood glucose levels [4]: apparent decrease in blood glucose levels | insulin-producing cells colored in red (immunostaining) [5]: only a few insulin-producing cells

HGF: Hepatocyte growth factor (HGF), Sigma
red coloration of insulin in cells (immunofluorescence) [6]: no red coloration indicating insulin was observed

CC[C@@]12C=CCN3CC[C@]4(C(=C(C(=O)OC)C1)Nc1cc5c(cc14)[C@H]1[C@@H](O5)[C@H](O)[C@]4(CC)CC(C(=O)OC)=C5Nc6c(cc(O)c(OC)c6OC)[C@@]56CCN1[C@H]46)[C@H]32 (stereo in doubt) [conophyllidine]
morphological changes involved in insulin production ([2]; AR42J cells, no concentration given): confirmed to induce morphological changes

NC(=O)c1cccnc1 [nicotinamide, reference compound]
insulin-producing cells colored in red (immunostaining) [5]: only a few insulin-producing cells

B1: Activin: activin A, which belongs to the TGF-β superfamily (protein, UniProt P08476 311-426, looked up)
Inhibin beta A chain: GLECDGKVNICCKKQFFVSFKDIGWNDWIIAPSGYHANYCEGECPSHIAGTSGSSLSFHSTVINHYRMRGHSPFANLKSCCVPTKLRPMSMLYYDDGQNIIKKDIQNMIVEECGCS
insulin production of AR42J cells [1]: capable of inducing AR42J cells to produce insulin | inducing insulin production of porcine pancreatic cells (porcine pancreatic cells): does not exhibit the effect
